Measured values from patent publication US20050106276A1, “Pharmaceutical composition made from Chinese traditional medecine and method of producing thereof” (Jiangsu Kanion Pharmaceutial Co. Ltd., priority 2001, published 2005).
Structures can show the parent of a compound that is named as a salt.

Experiments:
[1] = system: experimental mice with hyperglycaemia; test: blood glucose value of mice with hyperglycaemia lead by Streptozocin; type: in vivo, mouse; conditions: Streptozocin mice serum
Experimental: 100 male mice, weighting 25˜30 g, were given Streptozocin on the dosage of 180 mg/kg by intraperitoneal injection. taking blood from eye sockets of the survivals 72 hours later, using evaluate kit evaluated serum glucose, select 40 mice with hyperglycosemia whose serum glucose value is 18˜33 mmol/L, Which were randomly divided into 4 groups: Model group, Positive medicine Phenformin group, High and low dose of invented capsule group. All mice were intragastric administration 1 time each day in 10 days; Take another 10 mice as normal control group. All mice were fasting diet 12 hours after last administration, then taking blood from eye sockets, separating blood serum, using evaluate kit evaluated serum glucose value with Glucose enzymic method, then using t-value method to compare the significance with model group.

[2] = system: experimental rats with hyperglycaemia; test: blood glucose value of rats with hyperglycaemia lead by alloxan; type: in vivo, rat; conditions: alloxan rats serum
Experimental: 160 male rats, weighting 200˜250 g, were given alloxan on the dosage of 200 mg/kg by intraperitoneal injection. taking blood from eye sockets of the survivals 72 hours later, using evaluate kit evaluated serum glucose, select 40 rats with hyperglycosemia whose serum glucose value is 20˜25 mmol/L, Which were randomly divided into 4 groups: Model group, Positive medicine Phenformin group, High and low dose of invented capsule group. All rats were intragastric administration 1 time each day in 10 days; Take another 10 mice as normal control group. All mice were fasting diet 12 hours after last administration, then taking blood from eye sockets, separating blood serum, using evaluate kit evaluated serum glucose value with Glucose enzymic method, then using t-value method to compare the significance with model group.

[3] = 0.1 g/kg intragastric daily 10 days

## [H]/N=C(/N)N/C(=N/[H])NCCc1ccccc1 [Phenformin, Phenformin Hydrochloride]
[1]; [3]
  GLU After administration: 12.51 ± 6.93 mmol/L
[1]; baseline of 0.1 g/kg group
  GLU Before administration: 25.43 ± 3.93 mmol/L
[2]; [3]
  GLU After administration: 14.52 ± 4.99 mmol/L
[2]; baseline of 0.1 g/kg group
  GLU Before administration: 22.72 ± 1.53 mmol/L
